Publication PMC10938262 (Science translational medicine, 2023)

Biological target: T1, human estrogen receptor α (ERα) (Homo sapiens, UniProt P03372)
T1 sequence (P03372 302-552 limits assumed): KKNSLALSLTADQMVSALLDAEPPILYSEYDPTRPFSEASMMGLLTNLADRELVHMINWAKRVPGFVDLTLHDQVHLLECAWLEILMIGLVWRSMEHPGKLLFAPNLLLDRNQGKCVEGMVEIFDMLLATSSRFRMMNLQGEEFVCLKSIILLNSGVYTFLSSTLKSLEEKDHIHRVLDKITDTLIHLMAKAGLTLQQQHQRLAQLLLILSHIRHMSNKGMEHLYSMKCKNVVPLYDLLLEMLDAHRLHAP
Assay type: binding

For `C[C@]12CC[C@@H]3c4ccc(O)cc4CC[C@H]3[C@@H]1C[C@@H](F)[C@@H]2O` [FES, 16α-fluoroestradiol], the Ki was 300 ± 100 pM.
